“And” between values parts separate entries of the source, which are not always exact repeats. Equal entries are not always repeated. Where two headings read alike, the source gives them in different places.
Key:
[1] = tested on: P. falciparum Dd2-B2; assay: 72-h flow cytometry IC50 assay, Dd2-B2 and resistant Dd2-B2; type: cell-based, Plasmodium falciparum
Experimental: Replication assays were performed using a SYBR Green method as described previously. Briefly, asynchronous parasites were diluted to 0.83% parasitemia, 3% hematocrit in 30 µl medium, and added to 30 µl of diluted compounds in medium (0.1% DMSO final concentration) in black 384-wells plates. After a 72-h incubation, 30 µl of SYBR Green diluted in lysis buffer was added according to the manufacturer’s protocol (Life Technologies). Fluorescence intensity was measured on a BioTek Synergy 2 Plate Reader after 1-h incubation and was normalized to a DMSO control (100% growth) and DHA- or epoxomicin-treatment (no growth). […] Parasite survival was assessed by flow cytometry on an Accuri C6 (BD Biosciences) with BD C6 Plus software using SYBR Green and MitoTracker Deep Red FM (Life Technologies) as nuclear stain and vital dye, respectively, and data were analyzed using FlowJo (10.5.0). […] Luminescence was measured after 72 h using the Renilla-Glo(R) Luciferase Assay System (Promega E2750) and the GlomAX® Discover Multimode Microplate Reader (Promega). The luminescence values were normalized to DMSO vehicle (100% growth) and 200 nM chloroquine-treated (no growth) samples as controls.

[2] = tested on: rat primary hepatocytes; assay: Hepatocyte stability, rat; type: in vitro ADME

## C[C@@H](CNC(=O)[C@H](O)C(C)(C)CO)NC(=O)c1cc(F)c(F)cc1F [MMV693183]
[1]; 1x10^9 Dd2-B2 selected at 12-27 nM
  IC50 shift: 13 x
[1]; Dd2-B2, Log concentration (M) -8.61866
  Parasite growth, dose-response (No drug = 100): 46.9671 and 65.9341 and 69.186 and 60.7743
[1]; Dd2-B2, Log concentration (M) -8.91969
  Parasite growth, dose-response (No drug = 100): 65.3709 and 69.9634 and 65.2132 and 74.7261
[1]; Dd2-B2, Log concentration (M) -9.22072
  Parasite growth, dose-response (No drug = 100): 72.0216 and 80.9524 and 81.3953 and 76.7714
[1]; Dd2-B2, Log concentration (M) -9.52175
  Parasite growth, dose-response (No drug = 100): 91.6867 and 88.6447 and 91.0853 and 95.8364
[1]; Dd2-B2, Log concentration (M) -9.82278
  Parasite growth, dose-response (No drug = 100): 93.0054 and 90.8425 and 98.7403 and 95.3251
[1]; Dd2-B2, read-out: IC50
  IC50: 0.00179 µM and 0.00273 µM and 0.00355 µM and 0.00305 µM
[1]; Dd2-B2, read-out: mean IC50
  IC50: 0.003 µM
[1]; FL1, Log concentration (M) -7.11351
  Parasite growth, dose-response (No drug = 100): 0
[1]; FL1, Log concentration (M) -7.41454
  Parasite growth, dose-response (No drug = 100): 70.2458 and 55.9122
[1]; FL1, Log concentration (M) -7.71557
  Parasite growth, dose-response (No drug = 100): 80.5951 and 111.824
[1]; FL1, Log concentration (M) -8.0166
  Parasite growth, dose-response (No drug = 100): 100 and 101.689
[1]; FL1, Log concentration (M) -8.31763
  Parasite growth, dose-response (No drug = 100): 93.5317 and 96.6216
[1]; FL1, Log concentration (M) -8.61866
  Parasite growth, dose-response (No drug = 100): 96.119 and 101.689
[1]; FL1, Log concentration (M) -8.91969
  Parasite growth, dose-response (No drug = 100): 78.0078 and 118.581
[1]; FL1, Log concentration (M) -9.22072
  Parasite growth, dose-response (No drug = 100): 94.8254 and 105.068
[1]; FL1, Log concentration (M) -9.52175
  Parasite growth, dose-response (No drug = 100): 101.294 and 83.1081
[1]; FL1, Log concentration (M) -9.82278
  Parasite growth, dose-response (No drug = 100): 85.7697 and 115.203
[1]; FL1, read-out: IC50
  IC50: 0.0442 µM and 0.0388 µM
[1]; FL2, Log concentration (M) -7.11351
  Parasite growth, dose-response (No drug = 100): 0
[1]; FL2, Log concentration (M) -7.41454
  Parasite growth, dose-response (No drug = 100): 60.4288 and 62.4542
[1]; FL2, Log concentration (M) -7.71557
  Parasite growth, dose-response (No drug = 100): 82.846 and 84.7985
[1]; FL2, Log concentration (M) -8.0166
  Parasite growth, dose-response (No drug = 100): 96.8811 and 77.6557
[1]; FL2, Log concentration (M) -8.31763
  Parasite growth, dose-response (No drug = 100): 88.499 and 88.6447
[1]; FL2, Log concentration (M) -8.61866
  Parasite growth, dose-response (No drug = 100): 105.458 and 84.9817
[1]; FL2, Log concentration (M) -8.91969
  Parasite growth, dose-response (No drug = 100): 80.5068 and 77.1062
[1]; FL2, Log concentration (M) -9.22072
  Parasite growth, dose-response (No drug = 100): 101.365 and 80.4029
[1]; FL2, Log concentration (M) -9.52175
  Parasite growth, dose-response (No drug = 100): 71.345 and 104.029
[1]; FL2, Log concentration (M) -9.82278
  Parasite growth, dose-response (No drug = 100): 92.0078 and 88.4615
[1]; FL2, read-out: IC50
  IC50: 0.0407 µM and 0.0417 µM
[1]; FL3, Log concentration (M) -7.11351
  Parasite growth, dose-response (No drug = 100): 0
[1]; FL3, Log concentration (M) -7.41454
  Parasite growth, dose-response (No drug = 100): 54.4365 and 48.2063
[1]; FL3, Log concentration (M) -7.71557
  Parasite growth, dose-response (No drug = 100): 83.9329 and 95.9641
[1]; FL3, Log concentration (M) -8.0166
  Parasite growth, dose-response (No drug = 100): 96.6427 and 92.1525
[1]; FL3, Log concentration (M) -8.31763
  Parasite growth, dose-response (No drug = 100): 96.6427 and 93.0493
[1]; FL3, Log concentration (M) -8.61866
  Parasite growth, dose-response (No drug = 100): 96.1631 and 96.6368
[1]; FL3, Log concentration (M) -8.91969
  Parasite growth, dose-response (No drug = 100): 103.118 and 89.9103
[1]; FL3, Log concentration (M) -9.22072
  Parasite growth, dose-response (No drug = 100): 91.1271 and 102.466
[1]; FL3, Log concentration (M) -9.52175
  Parasite growth, dose-response (No drug = 100): 106.954 and 82.7354
[1]; FL3, Log concentration (M) -9.82278
  Parasite growth, dose-response (No drug = 100): 109.113 and 91.4798
[1]; FL3, read-out: IC50
  IC50: 0.0382 µM and 0.0379 µM
[2]; 0 min
  Compound Remaining (% of 0 min): 100%
[2]; 5 min
  Compound Remaining (% of 0 min): 96.2%
[2]; 10 min
  Compound Remaining (% of 0 min): 97.1%
[2]; 20 min
  Compound Remaining (% of 0 min): 97.8%
[2]; 40 min
  Compound Remaining (% of 0 min): 92.7%

From paper PMC9021288 (Nature Communications, 2022)
